{
  "source": "paper PMC4474874",
  "about": "“Effect of JAK Inhibitors on Release of CXCL9, CXCL10 and CXCL11 from Human Airway Epithelial Cells” (PLoS ONE, 2015)",
  "key": {"BEAS-2B cells": {"tested_on": "BEAS-2B cells", "assay": "Release of CXCL9, CXCL10 and CXCL11 from BEAS-2B cells (ELISA), inhibitors added 1h before stimulus", "assay_type": "cell-based, human", "settings": "for IC50: Homo sapiens, BEAS-2B, pre-treated 1h", "procedure": "(§1) BEAS-2B cells (catalogue number CRL-9609) were purchased directly from American Type Culture Collection (Rockville, MD). Keratinocyte serum-free medium (K-SFM), bovine pituitary extract (BPE), and recombinant human epidermal growth factor (EGF) were purchased from Invitrogen (Paisley, UK). BEAS-2B cells were cultured in K-SFM containing 50 μg/ml BPE and 5 ng/ml EGF at 37°C in a humidified atmosphere comprising 5% (v/v) CO2 in air. Cells were cultured as monolayers in growth factor-free media for 24 h prior to stimulation. Human primary airway epithelial cells were cultured as monolayers from bronchial brushings from both male and female subjects (Table 1) and cultured in LHC-9 media (Invitrogen, Paisley, UK) in collagen (1% w/v) coated flasks. Samples were obtained from non-smokers, smokers and patients with COPD. […] The subjects were matched for age and smokers and COPD patients for smoking history (Table 1). All subjects gave informed written consent and the study was approved by the NRES London-Chelsea Research Ethics committee, study number 09/H0801/85.\n(§2) Cell-free supernatants were removed 20h post-stimulation and assayed for CXCL9, CXCL10 and CXCL11 using Duoset ELISA kits (R & D Systems Europe, Abingdon, UK) according to the manufacturer’s instructions. The detection limits of these assays are 62pg/ml, 31pg/ml, and 7.8 pg/ml respectively.\n(§3) Data are presented as mean ± SEM of ‘n’ independent determinations. Concentration-response curves were analysed by least-squares, non-linear iterative regression with the ‘Graphpad Prism’ curve fitting program (GraphPad software, San Diego, USA) and IC50 values were subsequently interpolated from curves of best-fit. Statistical differences were determined using the Kruskal–Wallis test followed by Dunn's multiple comparison test or a Wilcoxon signed rank test as appropriate. Values of P<0.05 were considered significant.\nMedia was harvested and the concentrations of CXCL9 (panels a and d), CXCL10 (panels b and e) and CXCL11 (panels c and f) were measured by ELISA. Data are presented as mean±SEM, n = 7–8."}, "STAT-3": {"tested_on": "STAT-3", "assay": "STAT-3 DNA binding in BEAS-2B cells (TransAM)", "assay_type": "cell-based, human", "settings": "IFNγ + TNFα, inhibitor 10^-6M", "procedure": "STAT phosphorylation, nuclear translocation and DNA binding was determined using TransAM assays (Actif Motif, Rixensart, Belgium). Cells were treated with JAK inhibitors for 30 min prior to stimulation for 1h. Nuclear extracts were prepared using the Actif Motif assay reagents. Briefly, the nuclear extracts (10 μg) were incubated in DNA coated plates for 1h. After washing, antibodies supplied with the TransAM kit that were specific for the active forms of STAT1, STAT3, STAT5A and STAT5B were added to the wells and incubated for a further hour. The plates were washed and a secondary HRP-labelled anti-goat Ig antibody was added and the plates incubated for an hour. After washing, the assay was developed using the TMB substrate provided and the reaction stopped using 2N sulphuric acid. The plates were read at 450nm with a reference filter of 610nm. Data were then normalised to non-stimulated cells and calculated as fold change from baseline.\nAfter 1 h, nuclear extracts of the cells were prepared and TransAM assays for STAT-1 (panel a) and STAT-3 (panel b) were performed. Data are presented as fold change from baseline ± SEM; n = 4."}, "[1]": {"tested_on": "human primary airway epithelial cells", "assay": "Release of CXCL9, CXCL10 and CXCL11 from human primary airway epithelial cells (ELISA)", "assay_type": "cell-based", "settings": "for IC50 / EC50: Homo sapiens, Epithelial cell, pre-treated 1h; for IC50: pooled primary cells", "procedure": "as §1, §2, §3\nMedia was harvested and the concentrations of CXCL9 (panels a and d), CXCL10 (panels b and e) and CXCL11 (panels c and f) were measured by ELISA. Data are presented as mean ± SEM, n = 10–13."}, "STAT-1": {"tested_on": "STAT-1", "assay": "STAT-1 phosphorylation in human primary airway epithelial cells (western blot)", "assay_type": "cell-based", "settings": "1μM inhibitor 1h, IFNγ and IFNγ + TNFα 10 min", "procedure": "Enhanced chemiluminescence (ECL) reagent and Hybond-ECL nitrocellulose were obtained from GE Healthcare (Little Chalfont, UK). Bis-Tris SDS-PAGE (4–12%) gels and buffers were purchased from Invitrogen Ltd (Paisley, Scotland, UK). Antibodies against phosphorylated and total STAT-1 were purchased from New England Biolabs (Hitchin, UK). Epithelial cells were treated as indicated in six-well plates and lysed in 10 mM Tris-HCl buffer (pH 7.5) containing 150 mM NaCl, 2 mM EDTA, 1 mM sodium orthovanadate, 1% (v/v) Triton X-100, 1 mM phenylmethylsulfonyl fluoride, 10 μg/ml leupeptin, and 10 μg/ml aprotinin) for 30 min on ice. The lysates were then centrifuged at 12,000g for 15 min and protein concentration determined using the BCA protein assay (BioRad, Hemel Hempstead, UK). The proteins within the lysates (20 μg) were resolved with 4–12% Bis-Tris gels and transferred onto nitrocellulose membranes. The membranes were then blocked with 5% (w/v) non-fat milk in TBS containing 0.1% (v/v) Tween 20 for 1 h at room temperature and then incubated with antibodies specific for pSTAT-1 overnight at 4°C. The primary antibody was detected with peroxidase-conjugated secondary antibodies and labelled proteins were detected by ECL.\nCells were harvested and western blots performed for phosphorylated STAT-1 and total STAT-1 and quantified by densitometry. […]"}, "[2]": {"tested_on": "BEAS-2B and human primary airway epithelial cells", "assay": "Cell viability, MTT assay", "assay_type": "cell-based", "procedure": "Cell viability was determined colorimetrically by measuring the reduction of 3-[4,5-dimethylthiazol-2-yl]-2,5-diphenyltetrazolium bromide, MTT, to formazan by mitochondrial dehydrogenases, as described previously.\nIn order to determine whether any of the inhibitory effects of the JAK inhibitors could be attributed to cell death, MTT assays were performed at the end of every experiment. […] In order to address this issue, the levels of IL-6 released from cells stimulated with IFNγ + TNFα were measured."}, "[3]": {"settings": "IFNγ (10ng/ml) 20h, read-out: IC50, release of CXCL9"}, "[4]": {"settings": "IFNγ (10ng/ml) 20h, read-out: IC50, release of CXCL10"}, "[5]": {"settings": "IFNγ (10ng/ml) 20h, read-out: IC50, release of CXCL11"}, "[6]": {"settings": "IFNγ+TNFα (10ng/ml) 20h, read-out: IC50, release of CXCL9"}, "[7]": {"settings": "IFNγ+TNFα (10ng/ml) 20h, read-out: IC50, release of CXCL10"}, "[8]": {"settings": "IFNγ+TNFα (10ng/ml) 20h, read-out: IC50, release of CXCL11"}},
  "note": "Where two headings read alike, the source gives them in different places.",
  "data": [
    {"smiles": "CCc1cc(O)ccc1-c1ccc2c(-c3nc4ccccc4[nH]3)n[nH]c2c1", "note": "[PF1367550, 4-(3-(1H-benzo[d]imidazol-2-yl)-1H-indazol-6-yl)-3-ethylphenol]", "values": [
      {"measurement": "fold more potent than PF956980, CXCR3 chemokine release", "setting": "BEAS-2B cells; BEAS-2B cells, IFNγ and IFNγ+TNFα", "value": "~ 50 fold"},
      {"measurement": "IC50", "setting": "BEAS-2B cells; [3]", "value": "3.6 ± 1.4", "unit": "nM"},
      {"measurement": "IC50", "setting": "BEAS-2B cells; [4]", "value": "6.1 ± 2", "unit": "nM"},
      {"measurement": "IC50", "setting": "BEAS-2B cells; [5]", "value": "11.5 ± 2", "unit": "nM"},
      {"measurement": "IC50", "setting": "BEAS-2B cells; [6]", "value": "13.3 ± 2", "unit": "nM"},
      {"measurement": "IC50", "setting": "BEAS-2B cells; [7]", "value": "50.3 ± 8.5", "unit": "nM"},
      {"measurement": "IC50", "setting": "BEAS-2B cells; [8]", "value": "13.9 ± 2.6", "unit": "nM"},
      {"measurement": "effect on STAT-3 binding to DNA", "setting": "STAT-3", "value": "suppressed"},
      {"measurement": "IC50", "setting": "[1]; [3]", "value": "8.4 ± 1.3", "unit": "nM"},
      {"measurement": "IC50", "setting": "[1]; [4]", "value": "10.4 ± 1.7", "unit": "nM"},
      {"measurement": "IC50", "setting": "[1]; [5]", "value": "7 ± 0.9", "unit": "nM"},
      {"measurement": "IC50", "setting": "[1]; [6]", "value": "17.6 ± 3", "unit": "nM"},
      {"measurement": "IC50", "setting": "[1]; [7]", "value": "24.3 ± 2.4", "unit": "nM"},
      {"measurement": "IC50", "setting": "[1]; [8]", "value": "14.5 ± 2.4", "unit": "nM"},
      {"measurement": "EC50", "setting": "[1]; primary cells from COPD patients, IFNγ (10 ng/ml) 20h, read-out: EC50, release of CXCL9", "value": "7.4 ± 1.3", "unit": "nM"},
      {"measurement": "EC50", "setting": "[1]; primary cells from COPD patients, IFNγ (10 ng/ml) 20h, read-out: EC50, release of CXCL10", "value": "7.1 ± 1.3", "unit": "nM"},
      {"measurement": "EC50", "setting": "[1]; primary cells from COPD patients, IFNγ (10 ng/ml) 20h, read-out: EC50, release of CXCL11", "value": "6.3 ± 1.4", "unit": "nM"},
      {"measurement": "EC50", "setting": "[1]; primary cells from COPD patients, IFNγ +TNFα (10 ng/ml) 20h, read-out: EC50, release of CXCL9", "value": "20.8 ± 4.8", "unit": "nM"},
      {"measurement": "EC50", "setting": "[1]; primary cells from COPD patients, IFNγ +TNFα (10 ng/ml) 20h, read-out: EC50, release of CXCL10", "value": "29.1 ± 3.5", "unit": "nM"},
      {"measurement": "EC50", "setting": "[1]; primary cells from COPD patients, IFNγ +TNFα (10 ng/ml) 20h, read-out: EC50, release of CXCL11", "value": "16.7 ± 4.1", "unit": "nM"},
      {"measurement": "EC50", "setting": "[1]; primary cells from non-smokers, IFNγ (10 ng/ml) 20h, read-out: EC50, release of CXCL9", "value": "9.73 ± 3.5", "unit": "nM"},
      {"measurement": "EC50", "setting": "[1]; primary cells from non-smokers, IFNγ (10 ng/ml) 20h, read-out: EC50, release of CXCL10", "value": "12.8 ± 5.6", "unit": "nM"},
      {"measurement": "EC50", "setting": "[1]; primary cells from non-smokers, IFNγ (10 ng/ml) 20h, read-out: EC50, release of CXCL11", "value": "8.5 ± 0.7", "unit": "nM"},
      {"measurement": "EC50", "setting": "[1]; primary cells from non-smokers, IFNγ +TNFα (10 ng/ml) 20h, read-out: EC50, release of CXCL9", "value": "14.1 ± 7.1", "unit": "nM"},
      {"measurement": "EC50", "setting": "[1]; primary cells from non-smokers, IFNγ +TNFα (10 ng/ml) 20h, read-out: EC50, release of CXCL10", "value": "20.3 ± 5.1", "unit": "nM"},
      {"measurement": "EC50", "setting": "[1]; primary cells from non-smokers, IFNγ +TNFα (10 ng/ml) 20h, read-out: EC50, release of CXCL11", "value": "13.7 ± 6.7", "unit": "nM"},
      {"measurement": "EC50", "setting": "[1]; primary cells from smokers, IFNγ (10 ng/ml) 20h, read-out: EC50, release of CXCL9", "value": "9 ± 3", "unit": "nM"},
      {"measurement": "EC50", "setting": "[1]; primary cells from smokers, IFNγ (10 ng/ml) 20h, read-out: EC50, release of CXCL10", "value": "12.3 ± 0.36", "unit": "nM"},
      {"measurement": "EC50", "setting": "[1]; primary cells from smokers, IFNγ (10 ng/ml) 20h, read-out: EC50, release of CXCL11", "value": "6.8 ± 1.9", "unit": "nM"},
      {"measurement": "EC50", "setting": "[1]; primary cells from smokers, IFNγ +TNFα (10 ng/ml) 20h, read-out: EC50, release of CXCL9", "value": "15.3 ± 4.8", "unit": "nM"},
      {"measurement": "EC50", "setting": "[1]; primary cells from smokers, IFNγ +TNFα (10 ng/ml) 20h, read-out: EC50, release of CXCL10", "value": "20.2 ± 3.6", "unit": "nM"},
      {"measurement": "EC50", "setting": "[1]; primary cells from smokers, IFNγ +TNFα (10 ng/ml) 20h, read-out: EC50, release of CXCL11", "value": "11.8 ± 2.9", "unit": "nM"},
      {"measurement": "fold more potent than PF956980, CXCR3 chemokine release", "setting": "[1]; pooled human primary airway epithelial cells", "value": "~ 80 fold"},
      {"measurement": "effect on phosphorylation of STAT-1", "setting": "STAT-1", "value": "suppressed"},
      {"measurement": "cell viability compared to untreated cells (MTT)", "setting": "[2]; at 10^-6M and at all concentrations below this", "value": "no alterations in cell viability"},
      {"measurement": "effect on cell viability (MTT)", "setting": "[2]; within 10^3 of the IC50 for this compound", "value": "no effect on cell viability"}
    ]}
  ]
}
